Laboratory results from patent US11116817B2, “Antimicrobial agents and compositions comprising the same” (THE CURATORS OF THE UNIVERSITY OF MISSOURI, priority 2017, dated 2021).
Read-outs that look alike come from different tables or passages of the source. Positions of bridges follow the written chain, without caps; N, C: chain ends. No end group written: not given here.

Legend:
JAWSII cells = assay: Cell cytotoxicity assay (MTT); type: cell-based, mouse; settings: 4, 16, 64, 256 μg/ml for 4, 12, 24, and 48 hour
Procedure: The Cell Cytotoxicity Assay includes the following procedures. Mouse immature dendritic cell line, JAWSII (ATCC CRL-11904™), was cultured in Alpha minimum essential medium with ribonucleosides, deoxyribonucleosides, 4 mM L-glutamine, 1 mM sodium pyruvate, and 5 ng/ml murine Granulocyte macrophage colony-stimulating factor (GM-CSF) then supplemented with 20% FBS, 100 U/ml penicillin, and 100 μg/ml streptomycin at 37° C. in humidified air with 5% CO2. CCR-2 transfected CHO-K1 cells were cultured in RPMI-1640 supplemented with 10% FBS, 2 mM L-glutamine, 100 units/ml penicillin and streptomycin, and 500 μg/ml G418 at 37° C. in humidified air with 5% CO2. The cytotoxicity of CAMPs (SEQ ID NOs: 1, 2, 3, and 4) to JASWII and CHO-K1 cells was determined using MTT (3-(4,5-dimethylthiazol-2-yl)-2,5-diphenyltetrazolium bromide, Thermo Fisher Scientific) cell proliferation assay. Cells (5×10^3 cells/well) in 96-well microtiter plates were treated with peptides at 64, 128, 256, and 512 μg/ml for 4, 12, 24, and 48 hours at 37° C. After treatment, 20 μl of 12 mM MTT solution was added to each well and the plate was incubated for 4 hours. […] The plates were read using a spectrophotometer at 540 nm. The viability of treated cells was expressed as the percentage of viability relative to the untreated control. […]

S. aureus (ATCC 29213) [1] = type: cell-based
Procedure: (§1) The minimum inhibitory concentrations (MIC) of AvBDs (SEQ ID NOs: 5, 6, 7, 8, 9, 10, 11, 12, and 13) were determined under low salt and standard conditions according to the guidelines of the Clinical and Laboratory Standards Institute (CLSI). […] An equal volume […] of bacterial suspension was added to each well of the plate. The final bacterial concentration in the wells was 5×10^5 CFU/ml. […] To complement MIC-1s assays, the minimum bactericidal concentrations (MBC) were evaluated by sub-culturing the contents of the first two clear wells obtained in the MIC-1s assay onto LB agar plates. All assays were conducted in triplicate. The lowest peptide concentration inhibiting about, at least, or more than 99% of bacterial growth was defined as MBC-1s. The analogues were regarded as bactericidal when the MBC was determined to be no more than four times the MIC.

E. coli (ATCC 25922) = type: cell-based
Procedure: as §1

[2] = system: S. Typhimurium (ATCC 14028); type: cell-based
Procedure: as §1

[3] = system: P. aeruginosa (ATCC 27853); type: cell-based
Procedure: as §1

CHO-K1 cells = assay: Cell cytotoxicity assay (MTT); type: cell-based, hamster; settings: 4, 16, 64, 256 μg/ml for 4, 12, 24, and 48 hour
Procedure: The Cell Cytotoxicity Assay includes the following procedures. Mouse immature dendritic cell line, JAWSII (ATCC CRL-11904™), was cultured in Alpha minimum essential medium with ribonucleosides, deoxyribonucleosides, 4 mM L-glutamine, 1 mM sodium pyruvate, and 5 ng/ml murine Granulocyte macrophage colony-stimulating factor (GM-CSF) then supplemented with 20% FBS, 100 U/ml penicillin, and 100 μg/ml streptomycin at 37° C. in humidified air with 5% CO2. CCR-2 transfected CHO-K1 cells were cultured in RPMI-1640 supplemented with 10% FBS, 2 mM L-glutamine, 100 units/ml penicillin and streptomycin, and 500 μg/ml G418 at 37° C. in humidified air with 5% CO2. The cytotoxicity of CAMPs (SEQ ID NOs: 1, 2, 3, and 4) to JASWII and CHO-K1 cells was determined using MTT (3-(4,5-dimethylthiazol-2-yl)-2,5-diphenyltetrazolium bromide, Thermo Fisher Scientific) cell proliferation assay. Cells (5×10^3 cells/well) in 96-well microtiter plates were treated with peptides at 64, 128, 256, and 512 μg/ml for 4, 12, 24, and 48 hours at 37° C. After treatment, 20 μl of 12 mM MTT solution was added to each well and the plate was incubated for 4 hours. The medium in each well was replaced with 100 μl of dimethyl sulfoxide (DMSO, Sigma-Aldrich) to dissolve MTT crystals. The plates were read using a spectrophotometer at 540 nm. The viability of treated cells was expressed as the percentage of viability relative to the untreated control. The experiment was performed in triplicate.
(§2) Chicken macrophage cell lines MQ-NCSU and HD11 were maintained in RPMI-1640 media supplemented with 10% fetal bovine serum (FBS), 2% chicken serum, 100 U/ml penicillin and 100 μg/ml streptomycin (Sigma-Aldrich) at 37° C. in humidified air with 5% CO2. CHO-K1 cells were cultured in the same media without 2% chicken serum. For CCR2-transfected CHO-K1 cells, medium was supplemented with 500 μg/ml G418 was added (Sigma-Aldrich). Murine immature dendritic cell line JAWSII (ATCC CRL-11904™) was cultured in Alpha minimum essential medium containing 4 mM L-glutamine, 1 mM sodium pyruvate, 5 ng/ml murine Granulocyte macrophage colony-stimulating factor (GM-CSF), 20% FBS, 100 U/ml penicillin and 100 μg/ml streptomycin at 37° C. in humidified air with 5% CO2. The cell cytotoxicity was determined using the MTT (3-(4,5-dimethylthiazol-2-yl)-2,5-diphenyltetrazolium bromide cell proliferation assay according to the manufacturer's instruction (Thermo Fisher Scientific). Briefly, cells (5×10^3 cells/well) were seeded in 96-well tissue culture plates, incubated overnight and treated with the analogues at concentrations of 4, 16, 64 and 256 μg/ml for 4, 12, 24 and 48 hours at 37° C. After treatment, […] 12 mM MTT solution was added to each well. The plate was incubated for 4 hours and read at 540 nm. Viability was expressed as percentage of viable cells relative to the untreated control. The experiments were performed in triplicate.

[4] = system: chicken macrophage cell line MQ-NCSU; assay: Cell cytotoxicity assay (MTT); type: cell-based; settings: 4, 16, 64, 256 μg/ml for 4, 12, 24, and 48 hour
Procedure: as §2, with “The experiments were performed in triplicate.” left out

[5] = system: chicken macrophage cell line HD11; assay: Cell cytotoxicity assay (MTT); type: cell-based; settings: 4, 16, 64, 256 μg/ml for 4, 12, 24, and 48 hour
Procedure: as §2, with “The experiments were performed in triplicate.” left out

[6] = system: methicillin-resistant S. pseudintermedius (MRSP); type: cell-based
Procedure: (§3) The minimum inhibitory concentrations (MICs) of CAMPs (SEQ ID NOs: 1, 2, 3, and 4) were determined according to the guidelines of the Clinical and Laboratory Standards Institute (CLSI). The Muller Hinton (MH) II broth used in MIC assay was supplemented with 20-25 mg/L of calcium and 10-12.5 mg/L of magnesium. In brief, peptides were two-fold serially diluted (2 to 256 μg/ml) in a 96-well microtiter plate (Nunc™, Thermo Fisher Scientific) and an equal volume (μl) of bacterial suspension was added to each well of the plate. The final bacterial concentration in the wells was 5×10^5 CFU/ml. […] All assays were conducted in triplicate.

S. aureus (ATCC 29213) [7] = type: cell-based; remark: listed apart in the source
Procedure: as §3

P. aeruginosa = type: cell-based
Procedure: as §3

[8] = system: Gram-positive bacteria (S. aureus and MRSP strains); assay: MIC assay, Example One, pooled over Gram-positive strains; type: cell-based, S. pseudintermedius; settings: mean over the Gram-positive strains of Table 2
Procedure: as §3
The Hemolytic Assay includes the following procedures. […] The supernatant was transferred to a 96-well flat-bottomed polystyrene plate (Thermo Fisher Scientific), and the amount of hemoglobin released into the supernatant was determined by measuring the absorbance with a spectrophotometer at 540 nm. Hemolytic activity was expressed as the percentage of hemolysis and calculated using the following equation: hemolysis (%)=(As−A0)/(A100−A0)×100, where As is the absorbance of the sample, A100 is the absorbance of completely lysed RBCs in 0.2% Triton X-100, and A0 is the absorbance in the complete absence of hemolysis (PBS treatment). […] Therapeutic index (T.I.) was calculated according to a previously published formula: T.I.=MHC/MICGM. […]

[9] = standard conditions, CLSI guidelines

Sequence: GPHSCNHQRGLCRVGNCNPGYYLAKYCFSPVILCCKPLSPTPTKT (disulfide 5-34, 12-27, 17-35) [AvBD-12/6]
- effect on cell viability (JAWSII cells): did not appear to have any effect on cell viability
- MBC-Is (S. aureus (ATCC 29213) [1]; low salt condition (5 mM NaCl)): 256 µg/mL
- MIC-Is (S. aureus (ATCC 29213) [1]; low salt condition (5 mM NaCl)): 256 µg/mL
- MIC (S. aureus (ATCC 29213) [1]; [9]): 256 µg/mL
- MBC-Is (E. coli (ATCC 25922); low salt condition (5 mM NaCl)): 32 µg/mL
- MIC-Is (E. coli (ATCC 25922); low salt condition (5 mM NaCl)): 8 µg/mL
- MIC (E. coli (ATCC 25922); [9]): 256 µg/mL
- MBC-Is ([2]; low salt condition (5 mM NaCl)): 64 µg/mL
- MIC-Is ([2]; low salt condition (5 mM NaCl)): 16 µg/mL
- MIC [2, 9]: >256 µg/mL
- MIC-Is ([3]; low salt condition (5 mM NaCl)): 64 µg/mL
- MIC [3, 9]: >256 µg/mL
- effect on cell viability (CHO-K1 cells): did not appear to have any effect on cell viability
- effect on cell viability [4]: did not appear to have any effect on cell viability
- effect on cell viability [5]: did not appear to have any effect on cell viability

Sequence: SPIHACRYQRGVCIPGPCRWPYYRVGSCGSGLKSCCVRNRWA (disulfide 6-35, 13-28, 18-36) [AvBD-6]
- MBS-Is ([3]; low salt condition (5 mM NaCl)): 128 µg/mL
- MIC ([6]; S. pseudintermedius (13164006)): >256 µg/mL
- MIC ([6]; S. pseudintermedius (13193006)): >256 µg/mL
- MIC ([6]; S. pseudintermedius (13207007)): >256 µg/mL
- MIC ([6]; S. pseudintermedius (13228005)): >256 µg/mL
- MIC ([6]; S. pseudintermedius (13267017)): >256 µg/mL
- MIC ([6]; S. pseudintermedius (13269013)): >256 µg/mL
- MIC (S. aureus (ATCC 29213) [7]): 256 µg/mL
- MIC (P. aeruginosa; 24 h): >256 µg/mL
- MICAverage G− (P. aeruginosa; mean over the Gram-negative (P. aeruginosa) strains of Table 2): >256 µg/mL
- MICAverage G+ [8]: ≥256 µg/mL
